ChEMBL document CHEMBL1201862, “PubChem BioAssay data set” (2004)
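Each compound was tested at five concentrations against cells in 96-well plates for 48 hours. GI50: concentration for 50% inhibition of growth.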 Activity calls are given as the source filed them. Cut-off read from the data, not from the text of the source: active = GI50 up to about 1.1 µM and inactive = higher.

Experiments:
Test in all cases: inhibition of tumour cell growth, NCI panel, 48 h
HOP-62 = test system: HOP-62
EKVX = test system: EKVX
RXF 393 = test system: RXF 393
HCT-116 = test system: HCT-116
M14 = test system: M14
TK-10 = test system: TK-10
NCI-H460 = test system: NCI-H460
NCI-H226 = test system: NCI-H226
MCF7 = test system: MCF7
OVCAR-4 = test system: OVCAR-4
T47D = test system: T47D
K562 = test system: K562
CAKI-1 = test system: CAKI-1
SF-539 = test system: SF-539
Hs-578T = test system: Hs-578T
SK-MEL-5 = test system: SK-MEL-5
COLO 205 = test system: COLO 205
SN12C = test system: SN12C
SW-620 = test system: SW-620
HT-29 = test system: HT-29
A498 = test system: A498
SK-MEL-28 = test system: SK-MEL-28
Malme-3M = test system: Malme-3M
A549 = test system: A549
SK-MEL-2 = test system: SK-MEL-2
BT-549 = test system: BT-549
SF-295 = test system: SF-295
UACC-257 = test system: UACC-257
UACC-62 = test system: UACC-62
HCT-15 = test system: HCT-15
UO-31 = test system: UO-31
SF-268 = test system: SF-268
SNB-19 = test system: SNB-19
NCI-H522 = test system: NCI-H522
SNB-75 = test system: SNB-75
OVCAR-5 = test system: OVCAR-5
HL-60 = test system: HL-60
DU-145 = test system: DU-145
SK-OV-3 = test system: SK-OV-3
786-0 = test system: 786-0
NCI/ADR-RES = test system: NCI/ADR-RES
KM12 = test system: KM12
MDA-MB-231 = test system: MDA-MB-231
PC-3 = test system: PC-3
IGROV-1 = test system: IGROV-1
HOP-92 = test system: HOP-92
NCI-H23 = test system: NCI-H23
U-251 = test system: U-251
MDA-MB-435 = test system: MDA-MB-435
SR = test system: SR
ACHN = test system: ACHN
OVCAR-8 = test system: OVCAR-8
RPMI-8226 = test system: RPMI-8226
MOLT-4 = test system: MOLT-4
OVCAR-3 = test system: OVCAR-3
HCC 2998 = test system: HCC 2998
CCRF-CEM = test system: CCRF-CEM
LOX IMVI = test system: LOX IMVI

How did the GI50 (HOP-62) turn out when COc1cc2cnc(-c3ccccc3)cc2cc1OC was run?
The GI50 was 56.1 µM (inactive).

What about the GI50 (EKVX) of the same compound?
The GI50 was 3.22 µM (inactive).

And the GI50 (RXF 393)?
Its GI50 is 37.2 µM (inactive).

What about the GI50 (HCT-116) of the same compound?
The GI50 was 45.6 µM (inactive).

And the GI50 (M14)?
Its GI50 is 30.7 µM (inactive).

And the GI50 (TK-10)?
The GI50 was 25.7 µM (inactive).

And the GI50 (NCI-H460)?
The GI50 was 32.2 µM (inactive).

And the GI50 (NCI-H226)?
The GI50 was 17.7 µM (inactive).

What about the GI50 (MCF7) of the same compound?
The GI50 was 18.5 µM (inactive).

What about the GI50 (OVCAR-4) of the same compound?
The GI50 was 24.3 µM (inactive).

What about the GI50 (T47D) of the same compound?
Its GI50 is 26.7 µM (inactive).

What about the GI50 (K562) of the same compound?
Its GI50 is 30.1 µM (inactive).

And the GI50 (CAKI-1)?
The GI50 was 20.7 µM (inactive).

And the GI50 (SF-539)?
Its GI50 is 31.1 µM (inactive).

And the GI50 (Hs-578T)?
The GI50 was 12.8 µM (inactive).

What about the GI50 (SK-MEL-5) of the same compound?
The GI50 was 11.8 µM (inactive).

What about the GI50 (COLO 205) of the same compound?
The GI50 was 20.9 µM (inactive).

And the GI50 (SN12C)?
Its GI50 is 3.5 µM (inactive).

And the GI50 (SW-620)?
The GI50 was 32.4 µM (inactive).

And the GI50 (HT-29)?
The GI50 was 24.9 µM (inactive).

What about the GI50 (A498) of the same compound?
The GI50 was 0.252 µM (active).

And the GI50 (SK-MEL-28)?
Its GI50 is 33.5 µM (inactive).

What about the GI50 (Malme-3M) of the same compound?
The GI50 was 27.9 µM (inactive).

What about the GI50 (A549) of the same compound?
Its GI50 is 28.5 µM (inactive).

And the GI50 (SK-MEL-2)?
Its GI50 is 23 µM (inactive).

What about the GI50 (BT-549) of the same compound?
Its GI50 is 23.2 µM (inactive).

And the GI50 (SF-295)?
The GI50 was 19.5 µM (inactive).

And the GI50 (UACC-257)?
The GI50 was 22.8 µM (inactive).

And the GI50 (UACC-62)?
Its GI50 is 10 µM (inactive).

What about the GI50 (HCT-15) of the same compound?
Its GI50 is 19 µM.

What about the GI50 (UO-31) of the same compound?
Its GI50 is 29.5 µM (inactive).

And the GI50 (SF-268)?
Its GI50 is 35.7 µM (inactive).

And the GI50 (SNB-19)?
The GI50 was 24.9 µM (inactive).

And the GI50 (NCI-H522)?
The GI50 was 20 µM (inactive).

And the GI50 (SNB-75)?
Its GI50 is 41.1 µM (inactive).

What about the GI50 (OVCAR-5) of the same compound?
The GI50 was 33.2 µM (inactive).

And the GI50 (HL-60)?
Its GI50 is 20.3 µM (inactive).

What about the GI50 (DU-145) of the same compound?
Its GI50 is 37.3 µM (inactive).

What about the GI50 (SK-OV-3) of the same compound?
The GI50 was 39.7 µM (inactive).

What about the GI50 (786-0) of the same compound?
Its GI50 is 36.4 µM (inactive).

And the GI50 (NCI/ADR-RES)?
The GI50 was 26 µM (inactive).

And the GI50 (KM12)?
The GI50 was 26.9 µM (inactive).

What about the GI50 (MDA-MB-231) of the same compound?
Its GI50 is 19.1 µM (inactive).

What about the GI50 (PC-3) of the same compound?
The GI50 was 23 µM (inactive).

And the GI50 (IGROV-1)?
The GI50 was 19.1 µM (inactive).

And the GI50 (HOP-92)?
Its GI50 is 17.5 µM (inactive).

What about the GI50 (NCI-H23) of the same compound?
Its GI50 is 20.9 µM (inactive).

And the GI50 (U-251)?
Its GI50 is 19.8 µM (inactive).

What about the GI50 (MDA-MB-435) of the same compound?
Its GI50 is 26.9 µM (inactive).

What about the GI50 (SR) of the same compound?
The GI50 was 16.8 µM (inactive).

And the GI50 (ACHN)?
The GI50 was 23.3 µM (inactive).

What about the GI50 (OVCAR-8) of the same compound?
Its GI50 is 26.5 µM (inactive).

And the GI50 (RPMI-8226)?
Its GI50 is 15.9 µM (inactive).

And the GI50 (MOLT-4)?
The GI50 was 20 µM (inactive).

And the GI50 (OVCAR-3)?
The GI50 was 24.3 µM (inactive).

Which results are given for COc1ccc(Cc2nc3cc(C(F)(F)F)ccc3n2CCCN(C)C)cc1?
GI50 (HOP-62): 26 µM (inactive); GI50 (EKVX): 23.6 µM (inactive); GI50 (RXF 393): 14.7 µM (inactive); GI50 (M14): 14.7 µM (inactive); GI50 (TK-10): 20.7 µM (inactive); GI50 (HCC 2998): 3.93 µM (inactive); GI50 (NCI-H460): 20.3 µM (inactive); GI50 (NCI-H226): 36.1 µM (inactive); GI50 (MCF7): 17.9 µM (inactive); GI50 (OVCAR-4): 27.2 µM (inactive); GI50 (T47D): 15.7 µM (inactive); GI50 (K562): 14.4 µM (inactive); GI50 (CAKI-1): 18.2 µM (inactive); GI50 (Hs-578T): 17.5 µM (inactive); GI50 (SK-MEL-5): 16.2 µM (inactive); GI50 (COLO 205): 18 µM (inactive); GI50 (SW-620): 20.2 µM (inactive); GI50 (HT-29): 18.5 µM (inactive); GI50 (A498): 17.3 µM (inactive); GI50 (SK-MEL-28): 18 µM (inactive); GI50 (Malme-3M): 13.7 µM (inactive); GI50 (A549): 17.3 µM (inactive); GI50 (SK-MEL-2): 19 µM (inactive); GI50 (BT-549): 15.3 µM (inactive); GI50 (SF-295): 19.7 µM (inactive); GI50 (UACC-257): 17.1 µM (inactive); GI50 (UACC-62): 17.7 µM (inactive); GI50 (HCT-15): 20 µM; GI50 (UO-31): 0.246 µM (active); GI50 (CCRF-CEM): 22 µM (inactive); GI50 (SF-268): 16.8 µM (inactive); GI50 (SNB-19): 27.6 µM (inactive); GI50 (LOX IMVI): 19.8 µM (inactive); GI50 (NCI-H522): 14.8 µM (inactive); GI50 (OVCAR-5): 22.9 µM (inactive); GI50 (HL-60): 11.8 µM (inactive); GI50 (DU-145): 19.2 µM (inactive); GI50 (SK-OV-3): 16.7 µM (inactive); GI50 (NCI/ADR-RES): 14.6 µM (inactive); GI50 (KM12): 16.7 µM (inactive); GI50 (MDA-MB-231): 24 µM (inactive); GI50 (PC-3): 22.9 µM (inactive); GI50 (IGROV-1): 28 µM (inactive); GI50 (HOP-92): 26.5 µM (inactive); GI50 (NCI-H23): 15.7 µM (inactive); GI50 (U-251): 17.1 µM (inactive); GI50 (MDA-MB-435): 16.1 µM (inactive); GI50 (ACHN): 27.2 µM (inactive); GI50 (OVCAR-8): 30.6 µM (inactive); GI50 (MOLT-4): 2.27 µM (inactive); GI50 (OVCAR-3): 17.3 µM (inactive)
